Results on 17 molecules are retold here after patent US8546579B2, “Bicycloheteroaryl compounds as P2X7 modulators and uses thereof” (Evotec (US) Inc., priority 2006, dated 2013).

This assay concerns the target T1, P2X7 receptor (Homo sapiens, UniProt Q99572).
T1 construct: host or cells: THP-1 cells differentiated with LPS and IFN-γ
T1 sequence (Q99572 1-595): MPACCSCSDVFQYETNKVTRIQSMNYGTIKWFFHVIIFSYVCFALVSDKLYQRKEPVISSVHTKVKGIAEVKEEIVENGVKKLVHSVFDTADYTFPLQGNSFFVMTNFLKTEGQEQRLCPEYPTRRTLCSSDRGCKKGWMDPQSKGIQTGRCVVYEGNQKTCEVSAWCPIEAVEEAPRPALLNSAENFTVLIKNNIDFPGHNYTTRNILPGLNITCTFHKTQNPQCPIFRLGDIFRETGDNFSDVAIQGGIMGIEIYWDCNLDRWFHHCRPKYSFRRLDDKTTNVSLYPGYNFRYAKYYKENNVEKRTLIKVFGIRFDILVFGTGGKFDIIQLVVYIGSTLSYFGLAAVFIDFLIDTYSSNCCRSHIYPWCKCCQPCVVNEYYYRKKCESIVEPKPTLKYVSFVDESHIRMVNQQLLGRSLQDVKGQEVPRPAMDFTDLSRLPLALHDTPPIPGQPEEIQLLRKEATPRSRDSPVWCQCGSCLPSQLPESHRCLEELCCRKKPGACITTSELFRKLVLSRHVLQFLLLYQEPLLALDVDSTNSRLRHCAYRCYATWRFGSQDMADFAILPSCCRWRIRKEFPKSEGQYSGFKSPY
The assay is described as follows: IL-1β release assay in differentiated THP-1 cells stimulated with BzATP (Example 9). It counts as cell-based. The following applies: for inhibition at 0.3 µM: 0.3 μM compound, "+" class symbols, read-out: IL-1β % Inhib. @ 0.3 μM; for inhibition at 0.3 µM / inhibition at 0.1 µM: differentiated THP-1 cells, BzATP 250 uM; for IC50: THP-1 cells, BzATP-stimulated IL-1β release, four parameter logistic fit; for inhibition at 0.1 µM: 0.1 μM compound, "*" class symbols, read-out: IL-1β % Inhib. ("*" symbols: at 0.1 μM). A digest of the protocol: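 IC50 derived by four-parameter logistic fit of percent inhibition of IL-1β release, measured by ELISA after 45 min stimulation with 250 uM BzATP. Cells: THP-1 differentiated 16 h with 100 ng/mL LPS plus IFN-γ, LPS-primed 2 h, compound added 30 min beforehand.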

For the molecule `CC(C)(C)OC(=O)N1CCC[C@H]1Cn1ccc2c(NC(=O)Cc3ccc(Cl)c(C(F)(F)F)c3)cccc2c1=O` [Compound 1621], the inhibition at 0.3 µM was at least 76% and the IC50 (as a rule, the concentration needed to halve the response being measured) was found to be 6.86 nM.

Turning to `CC(C(N)=O)n1ccc2c(NC(=O)C3COc4cc(C(C)(C)C)ccc4O3)cccc2c1=O` (centres unmarked) [Compound 1622], the inhibition at 0.3 µM lay within 0 to 25% and the IC50 is above 1000 nM.

Regarding `COCCn1ccc2c(NC(=O)Cc3ccc(Cl)c(C(F)(F)F)c3)cccc2c1=O` [Compound 1623, 2-(4-Chloro-3-trifluoromethyl-phenyl)-N-[2-(2-methoxy-ethyl)-1-oxo-1,2-dihydro-isoquinolin-5-yl]-acetamide], the inhibition at 0.3 µM is at least 76% and the IC50 is 9.24 nM.

`O=C(Cc1ccc(Cl)c(C(F)(F)F)c1)Nc1cccc2c(=O)n(Cc3ccc(C(F)(F)F)nc3)ccc12` [Compound 1624, 2-(4-Chloro-3-trifluoromethyl-phenyl)-N-[1-oxo-2-(6-trifluoromethyl-pyridin-3-ylmethyl)-1,2-dihydro-isoquinolin-5-yl]-acetamide]: the inhibition at 0.3 µM is 26 to 50% and the IC50 is 365 nM.

On to `CS(=O)(=O)CCn1ccc2c(NC(=O)CC3(O)CCCCCC3)cccc2c1=O` [Compound 1625], for which the inhibition at 0.3 µM lay in the range of 0 to 25% and the IC50 was above 1000 nM.

Consider `O=C(Cc1cccc(C(F)(F)F)c1F)Nc1cccc2c(=O)n(Cc3ccc(C(F)(F)F)nc3)ccc12` [Compound 1626], for which the inhibition at 0.3 µM was in the range of 0 to 25% and the IC50 is above 1000 nM.

Turning to `O=C(Cc1cccc(C(F)(F)F)c1F)Nc1cccc2c(=O)n(Cc3ccccn3)ccc12` [Compound 1627], the inhibition at 0.3 µM was 26 to 50% and the IC50 came out at 416 nM.

For the molecule `O=C(Cc1ccc(Cl)c(C(F)(F)F)c1)Nc1cccc2c(=O)n(Cc3ccccn3)ccc12` [Compound 1628, 2-(4-Chloro-3-trifluoromethyl-phenyl)-N-(1-oxo-2-pyridin-2-ylmethyl-1,2-dihydro-isoquinolin-5-yl)-acetamide], the inhibition at 0.3 µM is at least 76% and the IC50 was found to be 55.9 nM.

With `CC1(C)CCCC(O)(CC(=O)Nc2cccc3c(=O)n(CCS(C)(=O)=O)ccc23)C1` (centres unmarked) [Compound 1629], the inhibition at 0.3 µM is 26 to 50% and the IC50 was found to be 457 nM.

As to `CS(=O)(=O)CCn1ccc2c(NC(=O)Cc3ccc(Cl)c(C(F)(F)F)c3)cccc2c1=O` [Compound 1630, 2-(4-Chloro-3-trifluoromethyl-phenyl)-N-[2-(2-methanesulfonyl-ethyl)-1-oxo-1,2-dihydro-isoquinolin-5-yl]acetamide], the inhibition at 0.3 µM is at least 76% and 108 nM corresponded to half-maximal inhibition (IC50).

`CC(C(=O)Nc1cccc2c(=O)n(CCS(C)(=O)=O)ccc12)c1ccc(Cl)cc1` (centres unmarked) [Compound 1631]: the inhibition at 0.3 µM fell in the range of 0 to 25% and the IC50 is above 1000 nM.

For `CS(=O)(=O)CCn1ccc2c(NC(=O)Cc3ccc(Cl)c(Cl)c3)cccc2c1=O` [Compound 1632], the inhibition at 0.3 µM lay in the range of 26 to 50% and the IC50 was 315 nM.

Turning to `CC(c1ccccn1)n1ccc2c(NC(=O)Cc3cccc(C(F)(F)F)c3F)cccc2c1=O` (centres unmarked) [Compound 1633, 2-(2-Fluoro-3-trifluoromethyl-phenyl)-N-[1-oxo-2-(1-pyridin-2-yl-ethyl)-1,2-dihydro-isoquinolin-5-yl]-acetamide], the inhibition at 0.3 µM is at least 76% and half-maximal inhibition (IC50) required 25.5 nM.

As for `CC(c1ccccn1)n1ccc2c(NC(=O)Cc3ccc(C(F)(F)F)cc3)cccc2c1=O` (centres unmarked) [Compound 1634], the inhibition at 0.3 µM lay in the range of 51 to 75% and the IC50 stood at 262 nM.

Take `CC(c1ccccn1)n1ccc2c(NC(=O)Cc3ccc(C(F)(F)F)c(F)c3)cccc2c1=O` (centres unmarked) [Compound 1635]: the inhibition at 0.3 µM was at least 76% and half-maximal inhibition (IC50) required 112 nM.

Consider `CC(c1ccccn1)n1ccc2c(NC(=O)[C@H](C)c3ccc(Cl)c(Cl)c3)cccc2c1=O` (some centres unmarked) [Compound 1636], for which the inhibition at 0.1 µM lay in the range of 26 to 50%.

Regarding `CC(c1ccccn1)n1ccc2c(NC(=O)Cc3ccc(Cl)c(F)c3)cccc2c1=O` (centres unmarked) [Compound 1637], the inhibition at 0.1 µM lay within 26 to 50%.
